Assay results as given in patent publication US20200276164A1, “PHARMACEUTICAL COMBINATIONS FOR THE TREATMENT OF CANCER” (The Queen's University of Belfast, priority 2017, published 2020).

What was measured:
LNCaP tumours = assay: Tumour oxygenation measurement in LNCaP xenograft model; assay type: in vivo, Balb/c SCID mice; conditions: MDV3100 4 mg/kg p.o. daily, nAbs i.p. 3x/week (anti-IL-8 50 μg/ml, anti-VEGF 100 μg/ml), over 28 days
Procedure: Tumour oxygenation was measured once weekly as previously described (Ming et al., Int J Cancer 2013; 132:1323-32).

LNCaP tumour vasculature = assay: Dorsal skin flap model, tumour vessel coverage; assay type: in vivo, Balb/c SCID mice
Procedure: A viewing chamber was attached to a raised skin flap on the dorsal surface of the mouse (Balb/c SCID) and a fragment (˜0.5 mm) of LNCaP tumour was placed on the microvascular as previously described (9). Tumour vasculature was imaged weekly/4 weeks using a stereomicroscope. Image analysis was carried out using Touptek software (Touptek Photonics, China).

[1] = HUVEC cell viability (MTT assay); assay type: cell-based; conditions: human, HUVEC cells, read-out: reduction of viability of HUVEC cells
Procedure: (§1) Cell viability was assessed by 3-(4,5-dimethylthiazol-2-yl)-2,5-diphenyltetrazolium bromide (MTT) assay as previously described (Maxwell et al., Oncogene 2007; 26: 7333-45).

HUVEC cells = assay: HUVEC apoptosis (Annexin V/PI staining); assay type: cell-based, human; conditions: 10 μM, 72 h
Procedure: FIG. 1 illustrates that MDV3100 treatment directly affects tumour vasculature. (A) Graph illustrating measured intra-tumoural oxygenation levels in growing MDV3100-treated LNCaP tumours, in the absence and presence of anti-IL-8 nAb (50 μg/ml) and/or anti-VEGF nAb (100 μg/ml). Values shown are mean (±SD). (B) Bar graph presenting time-dependent changes in tumour vessel density over time in MDV3100-treated LNCaP tumours, in the absence or presence of anti-IL-8 nAb (50 μg/ml) and/or anti-VEGF nAb (100 μg/ml). Stereological methods were used to analyze change in vessel density over time in all treatment groups and values were used to calculate percentage area covered by vessels. […] Data shown are the mean (±SEM) of four individual experiments. […] Viability was determined by MTT assay. […] Apoptosis was assessed by Annexin V/PI staining. […] The number of junctions was measured using AngioSys 2.0 software. […] For all data, statistically significant differences were determined using a Student's two-tailed t-test or Mann-Whitney U test:* p<0.05, ** p<0.01, *** p<0.001.
To further understand the events contributing to MDV3100-promoted hypoxia, we studied the direct effect of MDV3100 administration upon vascular endothelial cells using two independent i assays. In agreement with previous studies, we detected AR mRNA in HUVEC endothelial cells by qPCR analysis (FIG. 1C, top panel). […]

[2] = test system: endothelial cell tubule formation; assay: In vitro angiogenesis (V2A vascular tubule formation) assay; assay type: cell-based; conditions: 10 days; for stimulation of endothelial cell tubule formation: VEGF 2 ng/ml or rh-IL-8 3 nM
Procedure: The V2A angiogenesis assay (#ZHA-4000, Cellworks, UK) was carried out according to the manufacturer's instruction. Cells were allowed to settle for 4 days prior to treatment. Treatments were carried out in duplicate and were replenished every 2 days for 10 days. For treatments involving conditioned media, PC3 or LNCaP cells were treated as required for 24 h, media harvested and stored at −20° C. Vessels were visualized at 4× magnification. Vessel density was measured in four fields per well using AngioSys 2.0 software (Cellworks, UK).

PC3 cells [3] = assay: PC3 cell viability assay; assay type: cell-based, human; conditions: increasing concentrations, 72 h, relative to DMSO vehicle control
Procedure: as §1

PC3 cells [4] = assay: Chick embryo experimental metastasis model (CAM assay), PC3 colonization; assay type: in vivo; conditions: over five days; 0.1 mL of 20 μM solution i.v. per embryo on days 1 and 2
Procedure: Experimental metastasis assays were performed in chick embryos as described (Deryugina et al., Histochem Cell Biol 2008; 130: 1119-30). On day 12 of incubation, PC3 cells were injected directly into the blood circulation through an allantoic vein (1×10^5 cells in 0.1 mL serum-free medium per embryo). MDV3100 was delivered i.v. on days 1 and 2 after cell inoculations (0.1 mL of a 20 μM solution per embryo). On day 5, portions of the CAM were harvested to quantify the number of human tumour cells by human-specific Alu-qPCR as previously described (Deryugina et al., Cancer Res 2005; 65: 10959-69), using a standard curve generated by serial dilutions of human tumour cells within a constant number (1×10^6) of chick embryo fibroblasts.

LNCaP cells [5] = assay: LNCaP cell viability (MTT assay), normoxia or hypoxia; assay type: cell-based, human; conditions: 10 μM, 72 h
Procedure: (§2) Authenticated PC3 (ATCC CRL-1435), LNCaP (ATCC CRL-1740) and 22Rv1 (ATCC CRL-2505) cells were cultured as described in Seaton et al. (Carcinogenesis 2008; 29: 1148-56). C4-2B cells were maintained in RPMI 1640 supplemented with 10% fetal calf serum (FCS). MDV3100-sensitive (LNCaP-Par) and resistant (LNCaP-EnzR) cells were obtained from Prof. Vander Griend, University of Chicago, Chicago, Ill., and were cultured as described in Kregel et al. (Oncotarget 2016; 7: 26259-74). HUVEC (ATCC CRL-1730) cells were maintained in Endothelial Cell Growth Medium (#CC-3162, Lonza, UK). For experiments involving hypoxia (0.1% 02), cells were cultured as previously reported (Maxwell et al., Oncogene 2007; 26: 7333-45). Human IL-8 monoclonal antibody (#MAB208), human VEGF mAb (#AB293NA) and isotype-matched IgG (#MAB002) were obtained from R&D Systems (UK). MDV3100 (#S1250) was obtained from Selleckchem (Germany). Cells were regularly tested to ensure they were free of mycoplasma contamination.
as §1

LNCaP cells [6] = assay: PARP immunoblot in LNCaP cells; assay type: cell-based, human; conditions: 10 μM, 72 h
Procedure: (§3) Immunoblotting was performed as previously described (McCourt et al., Clin Cancer Res 2012; 18:3822-33). Antibodies were obtained as follows: AR, Millipore (#PG-21, UK); AR-V7 (#ab198394) & PARP (#14-6667-82), Abcam (UK); Bcl-2 (#4223), Cell Signalling Technology (The Netherlands); c-FLIP (#AG-20B-0056), Adipogen (Switzerland); RELA(p65) (#sc-372), Santa Cruz (CA, USA); GAPDH (#MCA4740), Biorad (UK).

C4-2B cells = assay: C4-2B cell viability assay; assay type: cell-based; conditions: 72 h
Procedure: as §2, §1

hypoxic LNCaP cells [7] = assay: qPCR of hypoxia-induced gene expression in LNCaP cells; assay type: cell-based, human; conditions: MDV3100 10 μM
Procedure: as §2
Nucleic acid samples were prepared and analyzed as previously described (Maxwell et al., Oncogene 2007; 26: 7333-45; Maxwell et al., Eur Urol 2013; 64: 177-88). Primer sequences were as follows: AR: Forward, 5′-[…]-3′ (SEQ ID NO: 1); Reverse, 5′-[…]-3′ (SEQ ID NO: 2); PSA/KLK3: Forward, 5′-[…]-3′ (SEQ ID NO: 3); Reverse, 5′-TTGCGCACACACGTCATT-3′ (SEQ ID NO: 4). Primer sequences for 18s, BCL2, CAIX, IL-8, and VEGF have been previously reported (Maxwell et al., Oncogene 2007; 26: 7333-45; Lekas et al., Urol Res 1997; 25: 309-14).

hypoxic LNCaP cells [8] = assay: ELISA of secreted VEGF and IL-8 from hypoxic LNCaP cells; assay type: cell-based, human; conditions: MDV3100 10 μM, relative to DMSO
Procedure: as §2
Secreted IL-8 (#M1918, Pelikine, Mast Group, UK), and VEGF (#DY293B, R&D Systems, UK) were measured by ELISA as per manufacturer's instructions.

LNCaP-EnzR cells [9] = assay: LNCaP-EnzR (MDV3100-resistant) cell viability assay; assay type: cell-based, human; conditions: MDV3100 10 μM, relative to DMSO control
Procedure: as §2, §1

LNCaP-EnzR cells [10] = assay: Immunoblot of PARP, AR, c-FLIP and Bcl-2 in LNCaP-EnzR cells; assay type: cell-based, human; conditions: MDV3100 10 μM, 72 h
Procedure: as §3

LNCaP xenograft = LNCaP xenograft study, tumour growth
Procedure: MDV3100 (in 0.1% DMSO in corn oil) was administered orally (p.o). Vehicle control (VC) or MDV3100 (4 mg/kg, equivalent to 100 mg/day in men) was administered daily. Human IL-8 and VEGF nAbs were administered 3×/week via intraperitoneal (i.p.) injection, at a final concentration of 50 μg/ml and 100 μg/ml, respectively. IgG control was at a final concentration of 150 μg/ml.
LNCaP cells (1×10^7 in Matrigel) were implanted on the rear dorsum of 8-10-week-old male Balb/c SCID mice. When tumour volume was 150-200 mm^3, mice were randomly assigned to treatment groups (3-5 per group). […] Mice were sacrificed at day 28 or day 35. Tumour growth over 28 days (% T/C) was calculated using the equation: % T/C=(mean tumour volume on day 28−mean starting volume)/(mean control tumour volume on day 28−mean control starting volume)×100.
Tumours were measured 3×/week using digital calipers. The length and width of the tumour was measured and the volume calculated using the formula volume=(length×width 2)/2. *, numbers in brackets show % T/C compared to enzalutamide alone at day 28; **, control is enzalutamide alone.

CNC(=O)c1ccc(N2C(=S)N(c3ccc(C#N)c(C(F)(F)F)c3)C(=O)C2(C)C)cc1F [MDV3100, Enzalutamide]
intra-tumoural oxygen levels (LNCaP tumours): rapid, profound drop in tumour oxygen levels over the initial 14 days | vessel coverage (percentage area covered by tumour vessels) (LNCaP tumour vasculature; 14 days): 5.2±2.2% | vessel coverage (percentage area covered by tumour vessels) (LNCaP tumour vasculature; after 7 days of treatment): 8.2±2.3% | vessel coverage (percentage area covered by tumour vessels) (LNCaP tumour vasculature; day 21): 10.3±3.1% | vessel coverage (percentage area covered by tumour vessels) (LNCaP tumour vasculature; day 28): 14.7±2.6% | cytotoxicity at 72 h, 10 μM ([1]; 10 μM): 10% | cytotoxicity at 72 h, 50 μM ([1]; 50 μM): 17% | induction of apoptosis in HUVEC cells (HUVEC cells; hypoxia): significantly enhanced | induction of apoptosis in HUVEC cells (HUVEC cells; normoxic culture conditions): minimal | tubule formation with conditioned medium from MDV3100-treated PC3 cells ([2]; CM of PC3 cells cultured with MDV3100 10 μM): no detrimental effect on tubule formation | development of branching junctions (vascular tubule formation) ([2]; MDV3100 10 μM): significantly impaired the development of branching junctions | viability of PC3 cells (PC3 cells [3]): unresponsive | PC3 colonization in the CAM assay (PC3 cells [4]): significantly enhanced PC3 colonization | viability of LNCaP cells (LNCaP cells [5]; hypoxic conditions): ineffective | viability of LNCaP cells (LNCaP cells [5]; normoxia, relative to DMSO control): reduced the viability | full-length PARP protein (immunoblot) (LNCaP cells [6]; hypoxic LNCaP cells): stabilization of PARP | full-length PARP protein (immunoblot) (LNCaP cells [6]; normoxic LNCaP cells): loss of full-length PARP protein | sensitivity of C4-2B cells (viability) (C4-2B cells; hypoxia, 10 μM): reduced sensitivity | sensitivity of C4-2B cells (viability) (C4-2B cells; normoxic culture conditions): intermediate sensitivity | hypoxia-induced up-regulation of BCL2 (qPCR) (hypoxic LNCaP cells [7]): failed to reverse | hypoxia-induced up-regulation of CAIX (qPCR) (hypoxic LNCaP cells [7]): failed to reverse | hypoxia-induced expression of VEGF and IL-8 (qPCR) (hypoxic LNCaP cells [7]; relative to DMSO): failed to attenuate | hypoxia-induced secretion of VEGF and IL-8 (ELISA) (hypoxic LNCaP cells [8]): failed to attenuate | viability of LNCaP-EnzR cells (LNCaP-EnzR cells [9]): no effect | expression of full-length PARP (immunoblot) (LNCaP-EnzR cells [10]): clearly increased | Tumour volume at day 28 (mm^3) (±SD) (LNCaP xenograft; day 28, MDV3100 4 mg/kg p.o. daily, antibodies i.p. 3x/week): 423 (±90) mm^3 | reduction in tumour volume / tumour growth (LNCaP xenograft; treatment-day 28, over 28 days): 59.5% | % T/C (LNCaP xenograft; tumour growth over 28 days versus vehicle control): 39.0%

VEGF
stimulation of endothelial cell tubule formation [2]: directly stimulated endothelial cell tubule formation

rh-IL-8: exogenous rh-IL-8 (3 nM) added in the tubule formation assay
stimulation of endothelial cell tubule formation [2]: less potent in stimulating tubule formation
